Ends that are not written are not given here.
Assays:
bacteria ML35p = conditions: at 30 μM concentration; cited from earlier work
ferroportin (FPN1) = molecular target: T1, ferroportin (FPN1) (Mus musculus, UniProt Q9JHI9); test: Western blot of ferroportin expression in macrophages; assay type: cell-based, murine; conditions: data not shown
T1 construct: endogenous in cells; host or cells: RAW 264.7 murine macrophages
T1 sequence (Q9JHI9 1-570): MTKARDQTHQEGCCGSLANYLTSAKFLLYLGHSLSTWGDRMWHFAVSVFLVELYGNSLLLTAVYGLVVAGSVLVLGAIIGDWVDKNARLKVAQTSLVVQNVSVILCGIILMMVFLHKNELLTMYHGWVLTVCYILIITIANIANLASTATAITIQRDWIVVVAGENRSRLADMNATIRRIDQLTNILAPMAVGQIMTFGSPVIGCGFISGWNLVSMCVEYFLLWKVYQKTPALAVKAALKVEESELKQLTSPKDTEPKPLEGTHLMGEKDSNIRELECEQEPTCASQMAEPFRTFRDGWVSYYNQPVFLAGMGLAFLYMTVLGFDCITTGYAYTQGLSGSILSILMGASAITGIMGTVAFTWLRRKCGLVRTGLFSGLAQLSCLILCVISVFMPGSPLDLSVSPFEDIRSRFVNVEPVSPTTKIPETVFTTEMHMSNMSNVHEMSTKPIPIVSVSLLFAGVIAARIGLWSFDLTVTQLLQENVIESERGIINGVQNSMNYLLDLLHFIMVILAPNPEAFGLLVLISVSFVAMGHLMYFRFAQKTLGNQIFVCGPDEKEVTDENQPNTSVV
Method: (§1) A, RAW 264.7 macrophages were treated with 11 μM and 10 μM of synthetic hepcidin-25 (having the sequence of SEQ ID NO. 2) and Hep-25His (having the sequence of SEQ ID NO. 6) for 4 h at 37° C. or with PBS as negative control. Cell lysates were subjected to 8% SDS PAGE and Western Blot with antibodies against TfR1, Ferroportin and actin as loading control. B, The signal density of ferroportin, TfR1 and actin protein bands from two independent experiments were quantified by densitometry and their intensity relative to actin was calculated. […] Hep25-His, negative peptide and PBS was incubated with Raw 264.7 macrophages, followed by cross-linking with DSS. Cell lysates were incubated with Ni2-NTA and eluates were analyzed by Western blot using anti-FPN1 Ab. […] HEK293-Fpn cells were induced with ponasterone for 24 h and then treated with Hep25-His or synthetic hepcidin 25 (s. Hep25) for 3 h. Fluorescence was visualized with a Leica TCS confocal microscope.
(§2) Western blotting—1×10^6 cells (RAW 264.7, THP-1 or J774) were plated in […] plates and after 12-20 h cells were treated with hepcidins in serum-free DMEM for 4 h, at 37° C. Afterwards, cells were re-suspended in lysis buffer (1% Triton, 25 mM Hepes pH 7.4, 150 mM NaCl, 10% Glycerol, 5 mM EDTA, 0.5 mM PMSF, protein inhibitors (Roche, Mannheim, Germany) and quantified by Bradford assay (Biorad, Hercules, Calif.). 30 μg of cell lysate was analyzed on 8% SDS-PAGE. Proteins were transferred to Hybond C nitrocellulose membrane (Amersham Biosciences, Piscataway, N.J.) and the membranes were incubated with the primary antibodies rabbit anti-ferroportin (Alpha Diagnostics, San Antonio, Tex.), mouse anti-TfR1 (Zymed, Invitrogen, Carlsbad, Calif.) and mouse anti-β actin (Santa Cruz Biotech, Santa Cruz, Calif.), in a dilution of 1:1000, overnight at 4° C. After washing, the membranes were incubated with anti-rabbit and anti-mouse secondary antibodies conjugated with HRP, in a dilution of 1:5000 (DakoCytomation, Carpinteria, Calif.), for 1 h at room temperature. Specific signal was detected with a chemiluminescence assay kit (ECL, Amersham Biosciences, Piscataway, N.J.). The bands were quantified by densitometry using the Quantity-One (Biorad, Hercules, Calif.) software. Data are shown as means±SD. Statistical analysis was performed by student t-Test.

TfR1 = test: Western blot of TfR1 expression in macrophages; assay type: cell-based, murine; conditions: RAW 264.7, 10 μM, 4 h at 37° C.
Method: as §1
as §2, with “After washing, the membranes were incubated with anti-rabbit and anti-mouse secondary antibodies conjugated with HRP, in a dilution of 1:5000 (DakoCytomation, Carpinteria, Calif.), for 1 h at room temperature.” left out, “Data are shown as means±SD. Statistical analysis was performed by student t-Test.” left out

Method for E. coli strain ML35: Antimicrobial activity of recombinant tagged hepcidins. E. coli strain ML35 was subjected to CFU assay in order to determine the antimicrobial activity of synthetic hepcidin 25 (s. Hep25) having the sequence os SEQ ID NO. 2, Hep-25His having the sequence of SEQ ID NO. 6, Hep-25MycHis having the sequence of SEQ ID NO. 8, Hep-20MycHis having the sequence of SEQ ID NO. 7 and negative peptide having the sequence SEQ ID NO. 9 at the concentrations indicated for 2 h at 37° C. Sodium phosphate buffer was used as negative control.
Antimicrobial assay—All purified recombinant hepcidins were tested for antibacterial activity against E. coli ML35 and BL21(DE) is a CFU assay (Porter E. M., van Dam E., Valore E. V., Ganz T., Broad-spectrum antimicrobial activity of human intestinal defensin 5, Infect. Immun. 65 (1997) 2396-2401.). Bacterial cell cultures were grown to OD600=0.2 (5×10^7 cfu/ml) and resuspended to a final concentration of 10^6 cfu/ml in 20mM sodium phosphate buffer, pH7.4. Various concentrations of peptides were added to a final volume of 100 μl and after incubation for 2 h at 37° C., surviving cells were plated in triplicates to LB/agar plates.
Antimicrobial activity of recombinant hepcidins—The colony forming unit assay (E. M. Porter, E. van Dam, E. V. Valore, T. Ganz, Broad-spectrum antimicrobial activity of human intestinal defensin 5, Infect. Immun. 65 (1997) 2396-2401) was used to determine the antimicrobial activity of the purified recombinant hepcidin forms against the E. coli strain, ML35. […] Surviving microbes were counted following incubation with various concentrations of recombinant hepcidin preparations, synthetic hepcidin or negative peptide for 2 h at 37° C.

hep20: hepcidin 20 as tested by Park et al. 2001 (ICIFCCGCCHRSKCGMCCKT; ends and bridges not checked; cysteine pairing not given here; UniProt P81172 65-84, looked up)
reduction of surviving bacteria ML35p (bacteria ML35p): 1000 fold

oligomeric fraction of Hep25-His: oligomer peak of Ni-NTA purified Hep-25His from size exclusion chromatography
effect on cellular iron metabolism (ferroportin (FPN1)): no effect

CC[C@H](C)[C@@H]1NC(=O)[C@@H](NC(=O)[C@@H](NC(=O)[C@@H]2CCCN2C(=O)[C@H](Cc2ccccc2)NC(=O)[C@H](Cc2c[nH]cn2)NC(=O)[C@@H](NC(=O)[C@@H](N)CC(=O)O)[C@@H](C)O)[C@@H](C)CC)CSSC[C@@H](C(=O)N[C@@H](CCCCN)C(=O)N[C@H](C(=O)O)[C@@H](C)O)NC(=O)[C@@H]2CSSC[C@H](NC(=O)[C@H](Cc3ccccc3)NC1=O)C(=O)N[C@H]1CSSC[C@H](NC(=O)[C@H](CCCCN)NC(=O)[C@H](CO)NC(=O)[C@H](CCCNC(=N)N)NC(=O)[C@H](Cc3c[nH]cn3)NC(=O)[C@@H]3CSSC[C@H](NC(=O)CNC1=O)C(=O)N3)C(=O)NCC(=O)N[C@@H](CCSC)C(=O)N2 [synthetic hepcidin 25, hepcidin 25, reference compound]
reduction of TfR1 in comparison to untreated cells (TfR1): 37%±6
IC50 (E. coli strain ML35; ML35, 2 h): 9 µM

hep25: hepcidin 25 as tested by Park et al. 2001 (natural, isolated from urine, or synthetic) (DTHFPICIFCCGCCHRSKCGMCCKT; ends and bridges not checked; cysteine pairing not given here; UniProt P81172 60-84, looked up)
reduction of surviving bacteria ML35p (bacteria ML35p): 1000 fold

hepcidin-20 (ICIFCCGCCHRSKCGMCCKT; listed as Homo sapiens)
concentration at which bactericidal (E. coli strain ML35; CFU assay, 2 h at 37° C., data not shown): higher than 10 mM

From patent US8614068B2, “Process for producing hepcidin” (Hellenic Pasteur Institute, priority 2007, dated 2013)
